Patent US7655430B2, “Method for analyzing residual agricultural chemical” (priority 2004, dated 2010)

Key:
choline esterase [1] = conditions: background description, no test described; cited from earlier work
choline esterase [2] = assay: choline esterase inhibition, inhibitory signal from hydrogen peroxide generated (choline esterase/choline oxidase, acetylcholine substrate); type: biochemical
Experimental: In this Example, it was intended to confirm the derivatization of carbosulfan (see FIG. 2). Carbosulfan was converted into carbofuran by adding a reduced glutathione (GSH), to a concentration of 5×10^−5M, and a glutathione-transferase (GST), to a concentration of 0.025 U/mL, to 10 mL of a 0.02M Mes buffer solution (pH 6.0) (2-morpholino-ethane sulfonic acid) containing carbosulfan in a variety of concentrations and then allowing each resulting reaction system to stand over at least 30 minutes.
Then, 10 mL of a solution containing 0.1M phosphate buffer solution (pH 7.6) and 0.2M potassium chloride was added to the foregoing solution which had been allowed to stand, to thus obtain a solution having a volume of 20 mL. […]
After bringing these components into contact with one another by allowing them to stand, acetylcholine was added to a concentration of 2×10^−4M to the foregoing solution and then the amount of hydrogen peroxide generated was determined to thus inspect the solution for the activity to inhibit the choline esterase activity. The same solution free of a carbosulfan was used as a control and this was compared with the solutions, which included carbosulfan in a variety of concentrations, based on the detected inhibitory signals corresponding to the quantities of the resulting hydrogen peroxide. […]

Row | Compound | ability to inhibit choline esterase (choline esterase [1]) | calibration curve of inhibitory signal (FIG. 3) (choline esterase [2]; after conversion with reduced glutathione (5×10^−5M) and glutathione transferase (0.025 U/mL), at least 30 minutes) | inhibitory activity (inhibitory signal, calibration curve FIG. 3) (choline esterase [2]; reference material free of conversion with reduced glutathione and glutathione transferase)
1 | CNC(=O)Oc1cccc2c1OC(C)(C)C2 [carbofuran] | strong activity of inhibiting choline esterase activity | – | –
2 | CCCCN(CCCC)SN(C)C(=O)Oc1cccc2c1OC(C)(C)C2 [carbosulfan] | – | almost identical to that observed for the reference material of carbofuran | only a weak inhibitory activity
